From patent US8227469B2, “Vanilloid receptor ligands and their use in treatments” (Amgen Inc., priority 2004, dated 2012)

| melting point | SMILES |
| --- | --- |
| 206 to 207 °C | C[C@H](c1ccc(F)cc1)N1CCN(c2cc(Nc3ccc4cccnc4c3)ncn2)CC1 [Example 4, (6-{4-[(1R)-1-(4-Fluorophenyl)-ethyl]-piperazin-1-yl}-pyrimidin-4-yl)-quinolin-7-yl-amine] |
| 206 to 207 °C | C[C@@H](c1ccc(F)cc1)N1CCN(c2cc(Nc3ccc4cccnc4c3)ncn2)CC1 [Example 5, (6-{4-[(1S)-1-(4-Fluorophenyl)-ethyl]-piperazin-1-yl}-pyrimidin-4-yl)-quinolin-7-yl-amine] |
| > 200 °C (dec.) | CC(=O)Nc1nc2c(Oc3cc(C4=CCC(C(C)(C)C)CC4)ncn3)cccc2s1 (stereo not drawn) [Example 8, N-{4-[6-(4-tert-Butyl-cyclohex-1-enyl)-pyrimidin-4-yloxy]-benzothiazol-2-yl}-acetamide] |
